Some results are limits rather than exact numbers.

The test deals with HSD17B13 (Homo sapiens (Human), UniProt Q7Z5P4). Briefly: HSD17B13 enzymatic inhibition assay (150 nM or 50 nM HSD17B13). In kind it is biochemical. As to conditions: 50 nM HSD17B13; read-out: Inhibition of 50 nM of HSD17B13 IC50.
Chain of HSD17B13 (Q7Z5P4 other isoform, or with tags, fused parts or gaps): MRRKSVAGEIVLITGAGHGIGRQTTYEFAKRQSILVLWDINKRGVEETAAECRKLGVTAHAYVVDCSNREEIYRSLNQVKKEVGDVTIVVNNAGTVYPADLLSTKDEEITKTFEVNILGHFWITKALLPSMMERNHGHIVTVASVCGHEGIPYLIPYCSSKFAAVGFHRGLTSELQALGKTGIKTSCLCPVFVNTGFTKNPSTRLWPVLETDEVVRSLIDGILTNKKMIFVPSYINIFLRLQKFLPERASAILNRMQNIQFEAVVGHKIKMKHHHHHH
Consider `O=C(NC(c1ccccc1)c1ccc(N2CCOCC2)cc1)c1ccc(C(F)(F)F)[nH]c1=O` (stereo not shown) [Compound 48, N-((4-morpholinophenyl)(phenyl)methyl)-2-oxo-6-(trifluoromethyl)-1,2-dihydropyridine-3-carboxamide], for which the IC50 – broadly, the concentration that gives 50% inhibition – came out at 2.49 µM.

`N#Cc1ccc(C(NC(=O)c2ccc(C(F)(F)F)[nH]c2=O)c2ccc(C#N)cc2)cc1` [Compound 49, N-(bis(4-cyanophenyl)methyl)-2-oxo-6-(trifluoromethyl)-1,2-dihydropyridine-3-carboxamide]: the IC50 is 0.98 µM.

With `COc1ccc2c(c1)Oc1ccccc1C2NC(=O)c1ccc(C(F)(F)F)[nH]c1=O` (stereo not shown) [Compound 54, N-(3-methoxy-9H-xanthen-9-yl)-2-oxo-6-(trifluoromethyl)-1,2-dihydropyridine-3-carboxamide], the IC50 amounted to 1.48 µM.

As to `COc1ccc2c(c1)Oc1cc(OC)ccc1C2NC(=O)c1ccc(C(F)(F)F)[nH]c1=O` [Compound 56, N-(3,6-dimethoxy-9H-xanthen-9-yl)-2-oxo-6-(trifluoromethyl)-1,2-dihydropyridine-3-carboxamide], the IC50 was found to be 0.44 µM.

For the compound `COc1ccc2c(c1)Oc1cccc(OC)c1C2NC(=O)c1ccc(C(F)(F)F)[nH]c1=O` (stereo not shown) [Compound 57, N-(1,6-dimethoxy-9H-xanthen-9-yl)-2-oxo-6-(trifluoromethyl)-1,2-dihydropyridine-3-carboxamide], the IC50 stood at 0.46 µM.

`O=C(NC(c1ccccc1)C1CCCCC1)c1ccc(C(F)(F)F)[nH]c1=O` (stereo not shown) [Compound 58, N-(cyclohexyl(phenyl)methyl)-2-oxo-6-(trifluoromethyl)-1,2-dihydropyridine-3-carboxamide]: the IC50 is 2.89 µM.

With `O=C(NC1c2ccccc2-c2ccccc21)c1cnc(Cc2ccccc2)[nH]c1=O` [Compound 59, 2-benzyl-N-(9H-fluoren-9-yl)-6-oxo-1,6-dihydropyrimidine-5-carboxamide], the half-inhibitory concentration (IC50) is above 10 µM.

On to `O=C(Nc1cc(-c2ccccc2)cc(-c2ccccc2)c1)c1ccc(C(F)(F)F)[nH]c1=O` [Compound 60, N-([1,1′:3′,1″-terphenyl]-5′-yl)-2-oxo-6-(trifluoromethyl)-1,2-dihydropyridine-3-carboxamide], for which the IC50 was above 10 µM.

Turning to `Cc1ccc(C(NC(=O)c2ccc(C(F)F)[nH]c2=O)c2ccc(C)cc2)cc1` [Compound 61, N-(di-p-tolylmethyl)-6-(difluoromethyl)-2-oxo-1,2-dihydropyridine-3-carboxamide], the IC50 is 2.25 µM.

On to `Cc1cccc(C(NC(=O)c2ccc(C(F)(F)F)[nH]c2=O)c2cccc(C)c2)c1` [Compound 62, N-(di-m-tolylmethyl)-6-(trifluoromethyl)-2-oxo-1,2-dihydropyridine-3-carboxamide], for which the IC50 stood at 1.11 µM.

As for `CC(=O)Nc1ccc(C(NC(=O)c2ccc(C(F)(F)F)[nH]c2=O)c2ccccc2)cc1` (stereo not shown) [Compound 66, N-((4-acetamidophenyl)(phenyl)methyl)-2-oxo-6-(trifluoromethyl)-1,2-dihydropyridine-3-carboxamide], the IC50 was found to be 7.22 µM.

As for `O=C(NC(c1ccc(Cl)cc1)c1ccccn1)c1ccc(C(F)(F)F)[nH]c1=O` (stereo not shown) [Compound 67, N-((4-chlorophenyl)(pyridin-2-yl)methyl)-2-oxo-6-(trifluoromethyl)-1,2-dihydropyridine-3-carboxamide], the IC50 came to 2.27 µM.

As for `O=C(NC(c1ccncc1)c1ccc(Cl)cc1)c1ccc(C(F)(F)F)[nH]c1=O` (stereo not shown) [Compound 68, N-((4-chlorophenyl)(pyridin-4-yl)methyl)-2-oxo-6-(trifluoromethyl)-1,2-dihydropyridine-3-carboxamide], the IC50 was determined as 2.53 µM.

As for `O=C(NC(c1ccc(Cl)cc1)c1cccnc1)c1ccc(C(F)(F)F)[nH]c1=O` (stereo not shown) [Compound 69, N-((4-chlorophenyl)(pyridin-3-yl)methyl)-2-oxo-6-(trifluoromethyl)-1,2-dihydropyridine-3-carboxamide], the concentration for half-maximal inhibition (IC50) is 2.59 µM.

As for `O=C(NC(c1ccc(Cl)cc1)c1cnccn1)c1ccc(C(F)(F)F)[nH]c1=O` (stereo not shown) [Compound 70, N-((4-chlorophenyl)(pyrazin-2-yl)methyl)-2-oxo-6-(trifluoromethyl)-1,2-dihydropyridine-3-carboxamide], the IC50 is above 10 µM.

In the case of `O=C(NC(c1ccc(Cl)cc1)c1ncccn1)c1ccc(C(F)(F)F)[nH]c1=O` (stereo not shown) [Compound 71, N-((4-chlorophenyl)(pyrimidin-2-yl)methyl)-2-oxo-6-(trifluoromethyl)-1,2-dihydropyridine-3-carboxamide], the IC50 was 5.85 µM.

For `O=C(NC(c1ccccc1)c1cccc(Br)n1)c1ccc(C(F)(F)F)[nH]c1=O` (stereo not shown) [Compound 72, N-((6-bromopyridin-2-yl)(phenyl)methyl)-2-oxo-6-(trifluoromethyl)-1,2-dihydropyridine-3-carboxamide], the IC50 was found to be 7.05 µM.

With `O=C(NC(c1ccncc1)c1ccncc1)c1ccc(C(F)(F)F)[nH]c1=O` [Compound 73, N-(di(pyridin-4-yl)methyl)-2-oxo-6-(trifluoromethyl)-1,2-dihydropyridine-3-carboxamide], the IC50 is above 10 µM.

For the compound `O=C(Cc1ccccc1)Nc1ccc(C(NC(=O)c2ccc(C(F)(F)F)[nH]c2=O)c2ccccc2)cc1` (stereo not shown) [Compound 74, N-(phenyl(4-(2-phenylacetamido)phenyl)methyl)-2-oxo-6-(trifluoromethyl)-1,2-dihydropyridine-3-carboxamide], the IC50 stood at 1.37 µM.

`O=C(Nc1ccc(C(NC(=O)c2ccc(C(F)(F)F)[nH]c2=O)c2ccccc2)cc1)c1ccccc1` (stereo not shown) [Compound 75, N-((4-benzamidophenyl)(phenyl)methyl)-2-oxo-6-(trifluoromethyl)-1,2-dihydropyridine-3-carboxamide]: the IC50 turned out to be 1.87 µM.

In the case of `O=C(NC(c1ccccc1)c1ccc(C2CCOCC2)cc1)c1ccc(C(F)(F)F)[nH]c1=O` (stereo not shown) [Compound 76, N-(phenyl(4-(tetrahydro-2H-pyran-4-yl)phenyl)methyl)-2-oxo-6-(trifluoromethyl)-1,2-dihydropyridine-3-carboxamide], the IC50 was determined as 1.7 µM.

On to `O=C(NC(c1ccccc1)c1ccc(C2CCC2)cc1)c1ccc(C(F)(F)F)[nH]c1=O` (stereo not shown) [Compound 77, N-((4-cyclobutylphenyl)(phenyl)methyl)-2-oxo-6-(trifluoromethyl)-1,2-dihydropyridine-3-carboxamide], for which the IC50 was found to be 0.68 µM.

As to `COc1ccc(C(NC(=O)c2c(C)cc(C(F)(F)F)[nH]c2=O)c2ccccc2)cc1` (stereo not shown) [Compound 78, N-((4-methoxyphenyl)(phenyl)methyl)-4-methyl-2-oxo-6-(trifluoromethyl)-1,2-dihydropyridine-3-carboxamide], the IC50 was found to be 1.34 µM.

As to `O=C(NC(c1ccccc1OC(F)(F)F)c1ccccc1OC(F)(F)F)c1ccc(C(F)(F)F)[nH]c1=O` [Compound 79, N-(bis(2-(trifluoromethoxy)phenyl)methyl)-2-oxo-6-(trifluoromethyl)-1,2-dihydropyridine-3-carboxamide], the IC50 worked out at 2.33 µM.

In the case of `O=C(NC(c1ccccc1)c1ccc2c(c1)CCCO2)c1ccc(C(F)(F)F)[nH]c1=O` (stereo not shown) [Compound 81, N-(chroman-6-yl(phenyl)methyl)-2-oxo-6-(trifluoromethyl)-1,2-dihydropyridine-3-carboxamide], the IC50 turned out to be 1.09 µM.

The record behind these values is patent US11957687B2 (REGENERON PHARMACEUTICALS, INC., priority 2019, dated 2024).
